In US12343350B2, “Istaroxime-containing intravenous formulation for the treatment of acute heart failure (AHF)” (Windtree Therapeutics, Inc., priority 2019, dated 2025):
Read-outs that look alike come from different tables or passages of the source. Marks after values point to notes of the source that are not given here.

Experiments:
[1] = Plasma levels of istaroxime and its metabolites in patients (HPLC-MS/MS); format: in vivo, human; details: for plasma concentration course during the infusion period: 24 h infusion of 0.5 or 1 μg/kg/min istaroxime, Caucasian and Chinese patients
Description: The quantitative determination of PST 2744 and its metabolite PST 2915 in human plasma was determined by the HPLC-MS/MS method that included a mobile phase of 70:30 acetonitrile/water, 1 mL/L 1M formic acid, and 1 mL/L 5M ammonium acetate. The flow rate was 1 mL/min, and the chromatographic separation was by reversed phase HPLC (Column: SYNERGI 4μ POLAR-RP80A 150×4.6 mm equipped with a Security-guard Phenomenex Polar-RP 4×3 mm). Detection was performed by MS/MS, and the acquisition mode was Multiple Reaction Monitoring (MRM).
The quantitative determination of istaroxime metabolies PST 2922 and PST 3093 in human plasma was also measured by the HPLC-MS/MS method. In this case, the mobile phase was 50:50 H2 O/CH3 CN (v/v) and 500 μL/L 98-100% HCOOH. The flow rate was 1 mL/min and chromatographic separation was done by reversed-phase HPLC (Column: Phenomenex Phenyl hexyl, 150×4.6 mm, equipped with a Phenomenex phenyl propyl guard-cartridge) under isocratic conditions. Detection was performed by MS/MS (376.0→282.0 amu for PST2922, 378.0→284.0 amu for PST 3093 and 362.0→268.0 amu for PST 3418, IS).

dog renal Na,K-ATPase = dog renal Na,K-ATPase (Canis lupus familiaris (Dog) (Canis familiaris), UniProt P50997); assay: Inhibition of dog renal Na,K-ATPase activity (32P-ATP); format: biochemical
Description: Kidneys were sliced and the outer medulla was dissected, pooled and suspended (1 g/10 ml) in a sucrose-histidine solution, containing 250 mM sucrose, 30 mM histidine and 5 mM EDTA, pH 7.2 and homogenized. The homogenate was centrifuged at 6.000 g for 15 min, the supernatant was decanted and centrifuged at 48.000 g for 30 min. The pellet was suspended in the sucrose-histidine buffer and incubated for 20 min with a sodium-dodecyl-sulphate (SDS) solution dissolved in a gradient buffer, containing 25 mM imidazole and 1 mM EDTA, pH 7.5. […] The pellet was suspended in the gradient buffer.
Increasing concentrations of the standard ouabain, or tested compound, were incubated with 0.3 μg of purified dog kidney enzyme for 10 min at 37° C. in 120 μl final volume of a medium containing 140 mM NaCl, 3 mM MgCl2, 50 mM Hepes-Tris, 3 mM ATP at a pH 7.5. Then, 10 μl of incubation solution containing 10 mM KCl and 20 nCi of ^32P-ATP (3-10 Ci/mmol, Perkin Elmer) was added, and the reaction was continued for 15 min at 37° C. The reaction was then stopped by acidification with 20% v/v ice-cold perchloric acid. ^32P was separated by centrifugation with activated Charcoal (Norit A, Serva) and the radioactivity was measured. The inhibitory activity was expressed as percent of the control samples carried out in the absence of ouabain or tested compound.

SERCA2a = SERCA2a (Canis lupus familiaris (Dog) (Canis familiaris), UniProt O46674); assay: SERCA2a ATPase activity in heart-derived SR microsomes from normal dog; format: biochemical; details: for % increase vs control (Vmax) / Vmax: normal dog SR microsomes; for Vmax: mean ± SD
Sequence of SERCA2a (O46674 whole entry): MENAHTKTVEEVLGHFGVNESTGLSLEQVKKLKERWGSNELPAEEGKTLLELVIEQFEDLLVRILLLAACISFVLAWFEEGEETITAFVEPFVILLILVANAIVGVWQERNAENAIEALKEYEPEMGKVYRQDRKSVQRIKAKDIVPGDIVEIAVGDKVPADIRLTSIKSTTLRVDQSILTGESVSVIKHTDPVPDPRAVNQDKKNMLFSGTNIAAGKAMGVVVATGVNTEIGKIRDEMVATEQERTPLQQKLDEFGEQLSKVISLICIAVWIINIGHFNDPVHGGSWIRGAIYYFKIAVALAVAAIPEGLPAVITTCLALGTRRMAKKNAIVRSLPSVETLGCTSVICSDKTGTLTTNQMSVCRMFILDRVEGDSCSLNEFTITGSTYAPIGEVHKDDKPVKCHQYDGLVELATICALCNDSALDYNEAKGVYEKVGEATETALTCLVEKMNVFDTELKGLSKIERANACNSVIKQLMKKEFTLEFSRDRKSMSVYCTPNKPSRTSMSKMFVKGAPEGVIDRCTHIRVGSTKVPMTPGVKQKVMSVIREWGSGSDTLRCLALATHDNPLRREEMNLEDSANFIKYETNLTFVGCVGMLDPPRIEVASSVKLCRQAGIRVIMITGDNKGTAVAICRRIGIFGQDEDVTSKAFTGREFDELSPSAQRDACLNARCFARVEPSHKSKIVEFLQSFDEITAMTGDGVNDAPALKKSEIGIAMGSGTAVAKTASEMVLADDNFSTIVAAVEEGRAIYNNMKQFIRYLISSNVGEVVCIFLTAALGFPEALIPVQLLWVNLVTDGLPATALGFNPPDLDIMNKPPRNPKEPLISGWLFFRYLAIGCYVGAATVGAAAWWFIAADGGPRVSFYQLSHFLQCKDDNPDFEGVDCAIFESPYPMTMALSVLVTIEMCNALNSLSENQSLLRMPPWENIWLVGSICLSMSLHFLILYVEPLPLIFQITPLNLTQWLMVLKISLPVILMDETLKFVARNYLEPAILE
Description: Male beagle dogs were used for obtaining cardiac tissues for SERCA2a-enriched sarcoplasmic reticulum preparations. Healthy dogs were utilized for obtaining the data in Table 3. Chronic heart failure was induced in dogs by multiple intracoronary microembolizations with polystyrene latex microspheres ([…], Polysciences, Warrington, PA, USA) as described previously (see Sabbah H N et al., Am J Physiol. 1991; 260:H1379-84). The experiments were conducted in the General Pharmacology Department of Sigma-Tau, Rome, Italy.
Left ventricle tissues were dissected, homogenized in 4 volumes of 10 mM NaHCO3 (pH 7), 1 mM PMSF, 10 μg/ml Aprotinin and Leupeptin and centrifuged at 12.000 g for 15 minutes, as described in Nediani C. et al. (J Biol Chem. 1996; 271:19066-73). Supernatants were filtered and centrifuged at 100.000 g for 30 min. Contractile proteins were extracted by suspending the pellets with 0.6 M KCl, 30 mM Histidine, pH 7 and further centrifugation at 100.000 g for 30 min. Final pellets were reconstituted with 0.3 M Sucrose, 30 mM Histidine, pH 7.
SERCA2a activity was measured in vitro as ^32P-ATP hydrolysis at different Ca2^+ concentrations (100 to 3000 nM) in the absence and presence of the tested compounds as described previously (see Micheletti R. et al., Am J Card 2007; 99:24A-32A). Increasing concentrations of each compound (from 0.05 to 300 nM) were pre-incubated with 2 μg of microsomes for 5 min at 4° C. in 80 μl of a solution containing 100 mM KCl, 5 mM MgCl2, 1 μM A23187, 20 mM Tris, pH 7.5. Then, 20 μl of 5 mM Tris-ATP containing 50 nCi of ^32P-ATP (3-10 Ci/mmol, Perkin Elmer) was added. The ATP hydrolysis was continued for 15 min at 37° C. and was stopped by acidification with 100 μl of 20% v/v ice-cold perchloric acid. ^32P was separated by centrifugation with activated charcoal (Norit A, SERVA) and the radioactivity was measured. SERCA2a-dependent activity was identified as the portion of total hydrolytic activity inhibited by 10 μM cyclopiazonic acid (see Seidler N W. et al., J Biol Chem. 1989; 264:17816-23).
Dose-response curves were fitted by using a sigmoidal curve fitting software and the maximal velocity (Vmax) activity and the Kd Ca2^+ were calculated (Synergy Software KaleidaGraph 3.6).
The compounds disclosed herein were tested on SERCA2a ATPase activity prepared from normal and failing dogs in a range of concentrations from […]. The effect has been expressed as % increase of the Vmax activity of a control sample run in the absence of compound. Data are mean & SD, where n indicates the number of experiments.

[2] = Acute toxicity (LD50) in mouse; format: in vivo; details: Albino Swiss CD-1, in vivo, single administration
Description: Acute toxicity has been determined in the mouse (Albino Swiss CD-1, body weight 30 g). Mice were orally treated, or intravenously injected, with single administration of increasing doses of the test substance to identify the dose causing 50% mortality. Mortality occurred within 30 min after the administration and survival after 24 h. The acute toxicity (LD50) was then assessed.
The acute toxicity of the tested compound PST 3093 was determined in the mouse (Albino Swiss CD-1, body weight 30 g). Compound PST 3093 was orally administered or intravenously injected at increasing doses to identify the dose causing 50% mortality. Mortality occurred within 30 min after the administration and survival after 24 h.

## C[C@]12CCC(=NOCCN)C[C@@H]1C(=O)C[C@@H]1[C@@H]2CC[C@]2(C)C(=O)CC[C@@H]12 [Istaroxime, (3Z,5a)-3-[(2-aminoethoxy)imino]androstane-6,17-dione]
[1]
  plasma concentration course during the infusion period: remain relatively constant
[1]; at 48 hours
  plasma levels: not detectable
[1]; following time points, whole duration of the infusion
  plasmatic level: about 8 ng/ml
[1]; human, plasma, intravenous, at 3 hour time point of infusion, read-out: plasmatic level
  concentration at 3 h: ~10 ng/mL
Dog renal Na,K-ATPase; purified dog kidney enzyme, 37° C., read-out: IC50, inhibition of dog renal Na,K-ATPase
  IC50: 0.14 µM
SERCA2a; 0.1 nM compound
  % increase vs control (Vmax): 14* %
  Vmax: 1.423 ± 0.123 μmol/min/mg prot
SERCA2a; 10 nM compound
  % increase vs control (Vmax): 20** %
  Vmax: 1.505 ± 0.111 μmol/min/mg prot
SERCA2a; normal dog SR vesicles, 0.1 nM and 10 nM
  SERCA2a activity stimulation: significantly stimulated
[2]; iv
  LD50 at 24 h: 29 to 32 mg/kg
[2]; os (oral)
  LD50 at 24 h: 200 mg/kg

## C[C@]12CCC(=NOCC(=O)O)CC1[C@H](O)CC1C2CC[C@]2(C)C(=O)CCC12 (stereo partly drawn) [PST 3093, (E,Z)-[(6-beta-hydroxy-17-oxoandrostan-3-ylidene)amino]oxyacetic acid]
[1]
  plasma concentration course during the infusion period: continue to accumulate
[1]; at 48 hours, 1 μg/kg/min istaroxime infusion
  average plasma level: about 21.2 ng/ml
[1]; at 48 hours, Caucasian patients, 0.5 μg/kg/min istaroxime infusion
  average plasma level: about 25.02 ng/ml
[1]; at 48 hours, Chinese patients, 0.5 μg/kg/min istaroxime infusion
  average plasma level: about 12.5 ng/ml
[1]; at 70 hours, or 46 hours post-infusion
  average plasma concentration: exceeding 10 ng/mL
[1]; by the end of the 24 h istaroxime infusion period (0.5 or 1 μg/kg/min)
  average plasma concentration: exceeding 60 ng/mL
Dog renal Na,K-ATPase
  IC50: > 100 µM
SERCA2a; 0.1 nM compound
  % increase vs control (Vmax): 25** %
SERCA2a; 10 nM compound
  % increase vs control (Vmax): 19** %
[2]; iv
  LD50 at 24 h: > 250 mg/kg
[2]; os (oral)
  LD50 at 24 h: > 200 mg/kg
